Test system: hearing in the SRO frequencies
Test: Validation study: SRO hearing monitoring with OtoID in subjects receiving cisplatin
Format: in vivo, human
Conditions: 9 ears of 24 monitored; Validation sample
Description: Validation Study, Sample Subjects. […] Subjects were prescreened using the electronic medical records for exclusionary criteria and to obtain treatment information. The subjects enrolled in the Validation study were part of a larger project to develop and evaluate a portable hearing testing device capable of measuring extended high frequency hearing. Except for the following two study-related differences, the same exclusionary criteria were used to recruit both groups of subjects (those participating in the Developmental or Validation studies). First, there was no exclusion for extent of hearing threshold loss in the Validation study sample. Second, subjects from the Validation study were tested on the chemotherapy unit or at bedside in the case of inpatients. There was no overlap of subjects in these two samples.
Validation Study; Equipment and Measurements. […] This device, the OtoID, was evaluated in an independent study for its ability to optimize the sensitivity, efficiency, and cost-effectiveness of ototoxicity early identification practices. […]
Sennheiser HDA 200 earphones were used with the OtoID to reduce the detrimental effects of environmental noise. […] The seven frequencies constituting each subject's individualized behavioral SRO were evaluated at each treatment interval. […] Subjects were also evaluated immediately following cessation of treatment and at 1 mo post-cessation of treatment. […]

## N.N.[Cl][Pt][Cl] [cisplatin]
  ears in which hearing loss occurred: 38%

Source: patent US9480418B2, “Systems and methods for the screening and monitoring of inner ear function” (The United States Government as represented by the …, priority 2012, dated 2016)
